{"source": "patent US20070128217A1", "about": "(priority 2003, published 2007)", "key": {"[1]": {"tested_on": "antibodies in sera from SARS patients (sera 1a, 1b, 2, 6, 37, 62, London, SARS-yellow, SARS-green)", "format": "binding, human", "parameters": "Binding of serum 6 to linear peptides of protein X1 of SARS-CoV Urbani / Binding of serum 37 to linear peptides of protein X1 of SARS-CoV Urbani / Binding of serum 6 to looped/cyclic peptide (PEPSCAN-ELISA) / Binding of serum 37 to looped/cyclic peptide (PEPSCAN-ELISA) / Binding of serum 37 to looped/cyclic peptides of protein X1 of SARS-CoV Urbani / Binding of serum 6 to linear peptides of protein X2 / Binding of serum 37 to linear peptides of protein X2 / Binding of serum 37 to looped/cyclic peptides of protein X2 of SARS-CoV Urbani / Binding of serum 6 to linear peptides of protein M of SARS-CoV Urbani / Binding of serum 37 to linear peptides of protein M of SARS-CoV Urbani / Binding of serum 6 to looped/cyclic peptides of protein M of SARS-CoV Urbani / Binding of serum 37 to looped/cyclic peptides of protein M of SARS-CoV Urbani / Binding of serum 6 to linear peptides of protein X3 of SARS-CoV Urbani / Binding of serum 37 to linear peptides of protein X3 of SARS-CoV Urbani / Binding of serum 37 to looped/cyclic peptides of protein X3 of SARS-CoV Urbani / Binding of serum 6 to linear peptides of protein X4 of SARS-CoV Urbani / Binding of serum 37 to linear peptides of protein X4 of SARS-CoV Urbani / Binding of serum 37 to looped/cyclic peptides of protein X4 of SARS-CoV Urbani / Binding of serum 6 to linear peptides of protein X5 of SARS-CoV Urbani / Binding of serum 37 to linear peptides of protein X5 of SARS-CoV Urbani / Binding of serum 37 to looped/cyclic peptides of protein X5 of SARS-CoV Urbani / Binding of serum 6 to linear peptides of protein N of SARS-CoV Urbani / Binding of serum 37 to linear peptides of protein N of SARS-CoV Urbani / Binding of serum 6 to linear peptide (PEPSCAN-ELISA) / Binding of serum 1a to looped/cyclic peptides of protein N of SARS-CoV Urbani / Binding of serum 1b to looped/cyclic peptides of protein N of SARS-CoV Urbani / Binding of serum 2 to looped/cyclic peptides of protein N of SARS-CoV Urbani / Binding of serum 6 to looped/cyclic peptides of protein N of SARS-CoV Urbani / Binding of serum 37 to looped/cyclic peptides of protein N of SARS-CoV Urbani / Binding of serum 62 to looped/cyclic peptides of protein N of SARS-CoV Urbani / Binding of serum London to looped/cyclic peptides of protein N of SARS-CoV Urbani / Binding of serum SARS-green to looped/cyclic peptides of protein N of SARS-CoV Urbani: unit not given here"}, "[2]": {"tested_on": "control sera (pooled serum of ten healthy LUMC hospital workers; commercial negative donor pooled serum from the Dutch bloodbank)", "format": "binding, human", "parameters": "Binding of Control serum LUMC to linear peptides / Binding of Control serum Blood-bank to linear peptides / Binding of Control serum LUMC to looped peptides / Binding of Control Serum Blood-Bank to Looped peptides / Binding of Control serum LUMC to linear peptides of the protein M of SARS-CoV Urbani / Binding of Control serum Blood-bank to linear peptides of the protein M of SARS-CoV Urbani / Binding of Control serum LUMC to looped peptides of the protein M of SARS-CoV Urbani / Binding of Control Serum Blood-Bank to Looped peptides of the protein M of SARS-CoV Urbani: unit not given here"}, "[3]": {"tested_on": "rabbit serum obtained by immunizing a rabbit with the SARS-CoV strain Frankfurt 1", "format": "binding", "parameters": "Binding of a rabbit serum to linear peptides / Binding of a rabbit serum to looped peptides / Rabbit serum linear peptides / Rabbit serum looped peptides / Binding of a rabbit serum to linear peptides of protein N of SARS-CoV Urbani (Rabbit serum linear peptides) / Binding of a rabbit serum to looped/cyclic peptides of protein N of SARS-CoV Urbani (Rabbit serum looped peptides): unit not given here"}}}
{"sequence": "TDSGFAAYNRYRIGN", "values": [{"measurement": "Binding of serum 1a to linear peptides of protein M of SARS-CoV Urbani", "setting": "[1]", "result": 0.6}, {"measurement": "Binding of serum 1a to looped/cyclic peptides of protein M of SARS-CoV Urbani", "setting": "[1]", "result": 0.7}, {"measurement": "Binding of serum 1b to linear peptides of protein M of SARS-CoV Urbani", "setting": "[1]", "result": 0.4}, {"measurement": "Binding of serum 1b to looped/cyclic peptides of protein M of SARS-CoV Urbani", "setting": "[1]", "result": 0.5}, {"measurement": "Binding of serum 2 to linear peptides of protein M of SARS-CoV Urbani", "setting": "[1]", "result": 0.5}, {"measurement": "Binding of serum 2 to looped/cyclic peptides of protein M of SARS-CoV Urbani", "setting": "[1]", "result": 0.6}, {"measurement": "Binding of serum 6 to linear peptides of protein M of SARS-CoV Urbani", "setting": "[1]", "result": 0.4}, {"measurement": "Binding of serum 6 to looped/cyclic peptides of protein M of SARS-CoV Urbani", "setting": "[1]", "result": 0.9}, {"measurement": "Binding of serum 37 to linear peptides of protein M of SARS-CoV Urbani", "setting": "[1]", "result": 0.4}, {"measurement": "Binding of serum 37 to looped/cyclic peptides of protein M of SARS-CoV Urbani", "setting": "[1]", "result": 0.7}, {"measurement": "Binding of serum 62 to linear peptides of protein M of SARS-CoV Urbani", "setting": "[1]", "result": 0.6}, {"measurement": "Binding of serum 62 to looped/cyclic peptides of protein M of SARS-CoV Urbani", "setting": "[1]", "result": 0.7}, {"measurement": "Binding of serum London to linear peptides of protein M of SARS-CoV Urbani", "setting": "[1]", "result": 0.3}, {"measurement": "Binding of serum London to looped/cyclic peptides of protein M of SARS-CoV Urbani", "setting": "[1]", "result": 0.2}, {"measurement": "Binding of serum SARS-green to linear peptides of protein M of SARS-CoV Urbani", "setting": "[1]", "result": 0.3}, {"measurement": "Binding of serum SARS-green to looped/cyclic peptides of protein M of SARS-CoV Urbani", "setting": "[1]", "result": 0.1}, {"measurement": "Binding of serum SARS-yellow to linear peptides of protein M of SARS-CoV Urbani", "setting": "[1]", "result": 0.0}, {"measurement": "Binding of serum SARS-yellow to looped/cyclic peptides of protein M of SARS-CoV Urbani", "setting": "[1]", "result": 0.8}, {"measurement": "Binding of Control Serum Blood-Bank to Looped peptides of the protein M of SARS-CoV Urbani", "setting": "[2]", "result": 0.6}, {"measurement": "Binding of Control serum Blood-bank to linear peptides of the protein M of SARS-CoV Urbani", "setting": "[2]", "result": 0.7}, {"measurement": "Binding of Control serum LUMC to linear peptides of the protein M of SARS-CoV Urbani", "setting": "[2]", "result": 0.3}, {"measurement": "Binding of Control serum LUMC to looped peptides of the protein M of SARS-CoV Urbani", "setting": "[2]", "result": 0.7}, {"measurement": "Rabbit serum linear peptides", "setting": "[3]", "result": 0.0}, {"measurement": "Rabbit serum looped peptides", "setting": "[3]", "result": 0.5}]}
{"sequence": "QASLPFGWLVIGVAF", "values": [{"measurement": "Binding of serum 1a to linear peptides of protein X1 of SARS-CoV Urbani", "setting": "[1]", "result": 0.7}, {"measurement": "Binding of serum 1a to looped/cyclic peptide (PEPSCAN-ELISA)", "setting": "[1]", "result": 0.4}, {"measurement": "Binding of serum 1b to linear peptides of protein X1 of SARS-CoV Urbani", "setting": "[1]", "result": 0.6}, {"measurement": "Binding of serum 1b to looped/cyclic peptide (PEPSCAN-ELISA)", "setting": "[1]", "result": 0.3}, {"measurement": "Binding of serum 2 to linear peptides of protein X1 of SARS-CoV Urbani", "setting": "[1]", "result": 0.6}, {"measurement": "Binding of serum 2 to looped/cyclic peptide (PEPSCAN-ELISA)", "setting": "[1]", "result": 0.2}, {"measurement": "Binding of serum 6 to linear peptides of protein X1 of SARS-CoV Urbani", "setting": "[1]", "result": 0.4}, {"measurement": "Binding of serum 6 to looped/cyclic peptide (PEPSCAN-ELISA)", "setting": "[1]", "result": 0.3}, {"measurement": "Binding of serum 37 to linear peptides of protein X1 of SARS-CoV Urbani", "setting": "[1]", "result": 0.6}, {"measurement": "Binding of serum 37 to looped/cyclic peptide (PEPSCAN-ELISA)", "setting": "[1]", "result": 0.4}, {"measurement": "Binding of serum 62 to linear peptides of protein X1 of SARS-CoV Urbani", "setting": "[1]", "result": 0.6}, {"measurement": "Binding of serum 62 to looped/cyclic peptide (PEPSCAN-ELISA)", "setting": "[1]", "result": 0.4}, {"measurement": "Binding of serum London to linear peptides of protein X1 of SARS-CoV Urbani", "setting": "[1]", "result": 0.2}, {"measurement": "Binding of serum London to looped/cyclic peptide (PEPSCAN-ELISA)", "setting": "[1]", "result": 0.2}, {"measurement": "Binding of serum SARS-green to linear peptides of protein X1 of SARS-CoV Urbani", "setting": "[1]", "result": 0.1}, {"measurement": "Binding of serum SARS-green to looped/cyclic peptide (PEPSCAN-ELISA)", "setting": "[1]", "result": 0.2}, {"measurement": "Binding of serum SARS-yellow to linear peptides of protein X1 of SARS-CoV Urbani", "setting": "[1]", "result": 0.5}, {"measurement": "Binding of serum SARS-yellow to looped/cyclic peptide (PEPSCAN-ELISA)", "setting": "[1]", "result": 0.2}, {"measurement": "Binding of Control Serum Blood-Bank to Looped peptides", "setting": "[2]", "result": 0.4}, {"measurement": "Binding of Control serum Blood-bank to linear peptides", "setting": "[2]", "result": 0.7}, {"measurement": "Binding of Control serum LUMC to linear peptides", "setting": "[2]", "result": 0.6}, {"measurement": "Binding of Control serum LUMC to looped peptides", "setting": "[2]", "result": 0.4}, {"measurement": "Binding of a rabbit serum to linear peptides", "setting": "[3]", "result": 0.3}, {"measurement": "Binding of a rabbit serum to looped peptides", "setting": "[3]", "result": 0.4}]}
{"sequence": "YNTRGNTYSTAWLCA", "values": [{"measurement": "Binding of serum 1a to linear peptides of protein X5 of SARS-CoV Urbani", "setting": "[1]", "result": 0.8}, {"measurement": "Binding of serum 1a to looped/cyclic peptides of protein X5 of SARS-CoV Urbani", "setting": "[1]", "result": 0.3}, {"measurement": "Binding of serum 1b to linear peptides of protein X5 of SARS-CoV Urbani", "setting": "[1]", "result": 0.6}, {"measurement": "Binding of serum 1b to looped/cyclic peptides of protein X5 of SARS-CoV Urbani", "setting": "[1]", "result": 0.2}, {"measurement": "Binding of serum 2 to linear peptides of protein X5 of SARS-CoV Urbani", "setting": "[1]", "result": 0.6}, {"measurement": "Binding of serum 2 to looped/cyclic peptides of protein X5 of SARS-CoV Urbani", "setting": "[1]", "result": 0.4}, {"measurement": "Binding of serum 6 to linear peptides of protein X5 of SARS-CoV Urbani", "setting": "[1]", "result": 0.8}, {"measurement": "Binding of serum 6 to looped/cyclic peptides of protein X5 of SARS-CoV Urbani", "setting": "[1]", "result": 0.4}, {"measurement": "Binding of serum 37 to linear peptides of protein X5 of SARS-CoV Urbani", "setting": "[1]", "result": 0.7}, {"measurement": "Binding of serum 37 to looped/cyclic peptides of protein X5 of SARS-CoV Urbani", "setting": "[1]", "result": 0.0}, {"measurement": "Binding of serum 62 to linear peptides of protein X5 of SARS-CoV Urbani", "setting": "[1]", "result": 0.7}, {"measurement": "Binding of serum 62 to looped/cyclic peptides of protein X5 of SARS-CoV Urbani", "setting": "[1]", "result": 0.2}, {"measurement": "Binding of serum London to linear peptides of protein X5 of SARS-CoV Urbani", "setting": "[1]", "result": 0.8}, {"measurement": "Binding of serum London to looped/cyclic peptides of protein X5 of SARS-CoV Urbani", "setting": "[1]", "result": 0.2}, {"measurement": "Binding of serum SARS-green to linear peptides of protein X5 of SARS-CoV Urbani", "setting": "[1]", "result": 0.7}, {"measurement": "Binding of serum SARS-green to looped/cyclic peptides of protein X5 of SARS-CoV Urbani", "setting": "[1]", "result": 0.2}, {"measurement": "Binding of serum SARS-yellow to linear peptides of protein X5 of SARS-CoV Urbani", "setting": "[1]", "result": 0.4}, {"measurement": "Binding of serum SARS-yellow to looped/cyclic peptides of protein X5 of SARS-CoV Urbani", "setting": "[1]", "result": 0.6}, {"measurement": "Binding of Control Serum Blood-Bank to Looped peptides", "setting": "[2]", "result": 0.5}, {"measurement": "Binding of Control serum Blood-bank to linear peptides", "setting": "[2]", "result": 0.7}, {"measurement": "Binding of Control serum LUMC to linear peptides", "setting": "[2]", "result": 0.6}, {"measurement": "Binding of Control serum LUMC to looped peptides", "setting": "[2]", "result": 0.5}, {"measurement": "Rabbit serum linear peptides", "setting": "[3]", "result": 0.7}, {"measurement": "Rabbit serum looped peptides", "setting": "[3]", "result": 0.0}]}
